In patent US20140057915A1, “KINASE INHIBITORS” (TOPIVERT PHARMA LIMITED, priority 2012, published 2014):

What was measured:
[1] = target: Syk (Homo sapiens, UniProt P43405); experiment: Syk enzyme inhibition (FRET); assay type: biochemical; details: Table 4a1
Procedure: (§1) The enzyme inhibitory activities of compounds disclosed herein are determined by FRET using synthetic peptides labelled with both donor and acceptor fluorophores (Z-LYTE, Invitrogen Ltd., Paisley, UK).
(§2) The relevant enzyme (3000 ng/mL or 2000 ng/mL respectively, 2.5 μL) is incubated with the test compound (either 4 μg/mL, 0.4 μg/mL, 0.04 μg/mL, or 0.004 μg/mL, 2.5 μL each) for 2 hr at RT. The FRET peptides (8 μM, 2.5 μL), and appropriate ATP solutions (2.5 μL, 800 μM for c-Src, and 60 μM ATP for Syk) are then added to the enzymes/compound mixtures and incubated for 1 hr. Development reagent (protease, 5 μL) is added for 1 hr prior to detection in a fluorescence microplate reader (Varioskan® Flash, ThermoFisher Scientific).
(§3) In all cases, the site-specific protease cleaves non-phosphorylated peptide only and eliminates the FRET signal. Phosphorylation levels of each reaction are calculated using the ratio of coumarin emission (donor) over fluorescein emission (acceptor), for which high ratios indicate high phosphorylation and low ratios indicate low phosphorylation levels.

[2] = target: GSK3α (Homo sapiens, UniProt P49840); experiment: GSK 3α enzyme inhibition (FRET), Method 1; assay type: biochemical; details: Table 4a1
Procedure: as §1
The following two assay variants are used for determination of GSK 3a inhibition.
The inhibitory activities of compounds of the invention against the GSK 3a enzyme isoform (Invitrogen), are evaluated by determining the level of activation/phosphorylation of the target peptide. The GSK3-α protein (500 ng/mL, 2.5 μL) is mixed with the test compound (2.5 μL at either 4 μg/mL, 0.4 μg/mL, 0.04 μg/mL, or 0.004 μg/mL) for 2 hr at RT. The FRET peptide (8 μM, 2.5 μL), which is a phosphorylation target for GSK3α, and ATP (40 μM, 2.5 μL) are then added to the enzyme/compound mixture and the resulting mixture incubated for 1 hr. Development reagent (protease, 5 μL) is added for 1 hr prior to detection in a fluorescence microplate reader (Varioskan® Flash, ThermoFisher Scientific).
as §3

[3] = test system: TNFα release, d-U937 cells; experiment: LPS-induced TNFα release in d-U937 cells; assay type: cell-based; details: Homo sapiens, dU937; relative to 10 μg/mL BIRB796; Table 4c1; read-out: LPS Induced Release of Cytokine in d-U937 Cells, TNFα REC50
Procedure: (§4) (a) LPS-Induced TNFα/IL-8 Release in d-U937Cells
U937 cells, a human monocytic cell line, are differentiated into macrophage-type cells by incubation with PMA (100 ng/mL) for 48 to 72 hr. Cells are pre-incubated with final concentrations of test compound for 2 hr and are then stimulated with LPS (0.1 μg/mL; from E. Coli: 0111:B4, Sigma) for 4 hr. The supernatant is collected for determination of TNFα and IL-8 concentrations by sandwich ELISA (Duo-set, R&D systems). […] The relative 50% effective concentration (REC50) is determined from the resultant concentration-response curve. The inhibition of IL-8 production is calculated at each concentration of test compound by comparison with vehicle control.

[4] = test system: d-U937 cells; experiment: Cell viability: MTT assay; assay type: cell-based, human; details: 1 μg/mL
Procedure: (l) The Effect of Test Compounds on Cell Viability: MTT Assay
Differentiated U937 cells are pre-incubated with each test compound (final concentration 1 μg/mL or 10 μg/mL in 200 μL media indicated below) under two protocols: the first for 4 hr in 5% FCS RPMI1640 media and the second in 10% FCS RPMI1640 media for 24 h. The supernatant is replaced with new media (200 μL) and MTT stock solution (10 μL, 5 mg/mL) is added to each well. After incubation for 1 hr the media are removed, DMSO (200 μL) is added to each well and the plates are shaken lightly for 1 hr prior to reading the absorbance at 550 nm. The percentage loss of cell viability is calculated for each well relative to vehicle (0.5% DMSO) treatment. Consequently an apparent increase in cell viability for drug treatment relative to vehicle is tabulated as a negative percentage.

[5] = test system: IL-8 release, d-U937 cells; experiment: LPS-induced IL-8 release in d-U937 cells; assay type: cell-based; details: Homo sapiens, dU937; Table 4c1; read-out: LPS Induced Release of Cytokine in d-U937 Cells, IL-8 IC50
Procedure: as §4
U937 cells, a human monocytic cell line, are differentiated into macrophage-type cells by incubation with PMA (100 ng/mL) for 48 to 72 hr. Cells are pre-incubated with final concentrations of test compound for 2 hr and are then stimulated with LPS (0.1 μg/mL; from E. Coli: 0111:B4, Sigma) for 4 hr. […] The relative 50% effective concentration (REC50) is determined from the resultant concentration-response curve.

[6] = target: cSrc (Homo sapiens, UniProt P12931); experiment: c-Src enzyme inhibition (FRET); assay type: biochemical; details: Table 4a1
Procedure: as §1, §2, §3

[7] = test system: ICAM-1 expression, BEAS2B cells; experiment: Poly I:C-induced ICAM-1 expression in BEAS2B cells; assay type: cell-based; details: Homo sapiens, BEAS-2B; read-out: Poly IC induced ICAM1 in BEAS2B, IC50
Procedure: (f) Poly I:C-Induced ICAM-1 Expression in BEAS2B Cells
Poly I:C is used in these studies as a simple, RNA virus mimic. Poly I:C-Oligofectamine mixture (1 μg/mL Poly I:C, ±2% Oligofectamine, 25 μL; Invivogen Ltd., San Diego, Calif., and Invitrogen, Carlsbad, Calif., respectively) is transfected into BEAS2B cells (human bronchial epithelial cells, ATCC). Cells are pre-incubated with final concentrations of test compounds for 2 hr and the level of ICAM1 expression on the cell surface is determined by cell-based ELISA. At a time point 18 hr after poly I:C transfection, cells are fixed with 4% formaldehyde in PBS (100 μL) and then endogenous peroxidase is quenched by the addition of washing buffer (100 μL, 0.05% Tween in PBS: PBS-Tween) containing 0.1% sodium azide and 1% hydrogen peroxide. Cells are washed with wash-buffer (3×200 μL). and after blocking the wells with 5% milk in PBS-Tween (100 μL) for 1 hr, the cells are incubated with anti-human ICAM-1 antibody (50 μL; Cell Signalling Technology, Danvers, Mass.) in 1% BSA PBS overnight at 4° C.
The cells are washed with PBS-Tween (3×200 μL) and incubated with the secondary antibody (100 μL; HRP-conjugated anti-rabbit IgG, Dako Ltd., Glostrup, Denmark). […] The ICAM-1 signal is detected by reading the absorbance at 450 nm against a reference wavelength of 655 nm using a spectrophotometer. The cells are then washed with PBS-Tween (3×200 μL) and total cell numbers in each well are determined by reading absorbance at 595 nm after Crystal Violet staining (50 μL of a 2% solution in PBS) and elution by 1% SDS solution (100 μL) in distilled water. The measured OD 450-655 readings are corrected for cell number by dividing with the OD595 reading in each well. The inhibition of ICAM-1 expression is calculated at each concentration of test compound by comparison with vehicle control.

cSrc, sequence (P12931 whole entry): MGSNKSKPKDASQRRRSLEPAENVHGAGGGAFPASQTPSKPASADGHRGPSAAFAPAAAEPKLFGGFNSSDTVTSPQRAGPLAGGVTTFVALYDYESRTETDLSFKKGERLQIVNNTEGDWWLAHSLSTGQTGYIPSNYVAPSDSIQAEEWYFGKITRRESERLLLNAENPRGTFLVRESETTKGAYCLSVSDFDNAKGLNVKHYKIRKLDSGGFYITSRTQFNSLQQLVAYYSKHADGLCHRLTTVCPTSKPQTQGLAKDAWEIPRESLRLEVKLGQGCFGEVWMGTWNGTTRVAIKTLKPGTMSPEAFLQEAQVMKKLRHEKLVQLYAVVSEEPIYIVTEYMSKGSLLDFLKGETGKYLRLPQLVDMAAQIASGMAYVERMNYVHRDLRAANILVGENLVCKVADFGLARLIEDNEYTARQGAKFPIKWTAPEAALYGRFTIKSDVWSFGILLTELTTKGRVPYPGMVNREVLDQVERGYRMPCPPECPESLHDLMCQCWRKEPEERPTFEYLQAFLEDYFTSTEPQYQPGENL
GSK3α, sequence (P49840 whole entry): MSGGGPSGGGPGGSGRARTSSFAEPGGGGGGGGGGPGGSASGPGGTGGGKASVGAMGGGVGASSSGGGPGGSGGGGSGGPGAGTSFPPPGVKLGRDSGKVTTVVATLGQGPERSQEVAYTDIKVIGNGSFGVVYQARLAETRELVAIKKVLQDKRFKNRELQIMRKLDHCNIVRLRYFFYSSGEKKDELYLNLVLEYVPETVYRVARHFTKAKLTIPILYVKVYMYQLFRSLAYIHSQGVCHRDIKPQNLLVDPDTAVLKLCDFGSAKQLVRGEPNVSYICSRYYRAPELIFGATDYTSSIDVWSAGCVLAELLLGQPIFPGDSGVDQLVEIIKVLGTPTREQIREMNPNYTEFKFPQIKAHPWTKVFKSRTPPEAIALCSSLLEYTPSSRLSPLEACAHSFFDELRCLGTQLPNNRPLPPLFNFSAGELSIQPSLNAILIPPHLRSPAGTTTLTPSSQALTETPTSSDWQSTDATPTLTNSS

SMILES	IC50 [1] [nM]	IC50 [2] [nM]	EC50 [3] [nM]	Cell viability at time point in d-U937 cells, 4 h [4]	Cell viability at time point in d-U937 cells, 24 h [4]	IC50 [5] [nM]	IC50 [6] [nM]	IC50 [7] [nM]
COc1ccc(-n2nc(C(C)C)cc2NC(=O)Nc2ccc(Oc3ccnc(Nc4cccc(C(=O)NCCN5CCOCC5)c4)n3)c3ccccc23)cc1 [Example 20, 3-((4-((4-(3-(3-isopropyl-1-(4-methoxyphenyl)-1H-pyrazol-5-yl)ureido)naphthalen-1-yl)oxy)pyrimidin-2-yl)amino)-N-(2-morpholinoethyl)benzamide]	15	317	1.4	−ve (−ve and +ve indicate that the value is below and above respectively, the no significant effect threshold, defined as 30% inhibition at 1 μg/mL at the time point indicated)	−ve (−ve and +ve indicate that the value is below and above respectively, the no significant effect threshold, defined as 30% inhibition at 1 μg/mL at the time point indicated)			
COc1ccc(-n2nc(C(C)(C)C)cc2NC(=O)Nc2ccc(Oc3ccnc(Nc4cc(OC)cc(C(=O)NCCN5CCOCC5)c4)n3)c3ccccc23)cc1 [Example 54, 3-((4-((4-(3-(3-(tert-butyl)-1-(4-methoxyphenyl)-1H-pyrazol-5-yl)ureido)naphthalen-1-yl)oxy)pyrimidin-2-yl)amino)-5-methoxy-N-(2-morpholinoethyl)benzamide]	5	217	0.2	−ve (−ve and +ve indicate that the value is below and above respectively, the no significant effect threshold, defined as 30% inhibition at 1 μg/mL at the time point indicated)	−ve (−ve and +ve indicate that the value is below and above respectively, the no significant effect threshold, defined as 30% inhibition at 1 μg/mL at the time point indicated)	0.8		
COc1cc(Nc2nccc(Oc3ccc(NC(=O)Nc4cc(C(C)(C)C)nn4-c4ccc(OC)nc4)c4ccccc34)n2)cc(C(=O)NCCN2CCOCC2)c1 [Example 57, 3-((4-((4-(3-(3-(tert-butyl)-1-(6-methoxypyridin-3-yl)-1H-pyrazol-5-yl)ureido)naphthalen-1-yl)oxy)pyrimidin-2-yl)amino)-5-methoxy-N-(2-morpholinoethyl)benzamide]		283	0.6	−ve (−ve and +ve indicate that the value is below and above respectively, the no significant effect threshold, defined as 30% inhibition at 1 μg/mL at the time point indicated)	−ve (−ve and +ve indicate that the value is below and above respectively, the no significant effect threshold, defined as 30% inhibition at 1 μg/mL at the time point indicated)	1.5	< 1	1.9
COc1cc(Nc2nccc(Oc3ccc(NC(=O)Nc4cc(C(C)C)nn4-c4ccc(C)cc4)c4ccccc34)n2)cc(C(=O)NCCO)c1 [Example 63, N-(2-hydroxyethyl)-3-((4-((4-(3-(3-isopropyl-1-(p-tolyl)-1H-pyrazol-5-yl)ureido)naphthalen-1-yl)oxy)pyrimidin-2-yl)amino)-5-methoxybenzamide]	865		0.7	−ve (−ve and +ve indicate that the value is below and above respectively, the no significant effect threshold, defined as 30% inhibition at 1 μg/mL at the time point indicated)	−ve (−ve and +ve indicate that the value is below and above respectively, the no significant effect threshold, defined as 30% inhibition at 1 μg/mL at the time point indicated)	1.4	37	10.1
C=C(C)c1cc(NC(=O)Nc2ccc(Oc3ccnc(Nc4cc(OC)cc(C(=O)NCCN5CCOCC5)c4)n3)c3ccccc23)n(-c2ccc(OC)cc2)n1 [Example 86, 3-Methoxy-5-((4-((4-(3-(1-(4-methoxyphenyl)-3-(prop-1-en-2-yl)-1H-pyrazol-5-yl)ureido)naphthalen-1-yl)oxy)pyrimidin-2-yl)amino)-N-(2-morpholinoethyl)-benzamide]	20	> 13000		−ve (−ve and +ve indicate that the value is below and above respectively, the no significant effect threshold, defined as 30% inhibition at 1 μg/mL at the time point indicated)	−ve (−ve and +ve indicate that the value is below and above respectively, the no significant effect threshold, defined as 30% inhibition at 1 μg/mL at the time point indicated)	1.5	8	
COc1ccc(-n2nc(C(C)(C)C)cc2NC(=O)Nc2ccc(Oc3cc(Nc4cc(OC)cc(C(=O)NCCN5CCOCC5)c4)ncn3)c(C)c2C)cc1 [Example 91, 3-((6-(4-(3-(3-(tert-Butyl)-1-(4-methoxyphenyl)-1H-pyrazol-5-yl)ureido)-2,3-dimethylphenoxy)pyrimidin-4-yl)amino)-5-methoxy-N-(2-morpholinoethyl)benzamide]	131	3520					< 1.3	
